# Legend:
# Scarb1-/-DCs = assay: BMDCs from Scarb1-/- versus wild-type mice; format: cell-based, mouse
# Source text: VitE can enter enterocytes via the SCARB1 receptor, and SCARB1 facilitates the uptake of cholesteryl esters from high-density lipoproteins. […] To determine whether SCARB1 is required for VitE-induced DC activation, we generated BMDCs from Scarb1-/-versus wild-type mice. […] Taken together, VitE enters DCs via SCARB1 and binds SHP1 to inhibit pSHP1, leading to DC activation, which increases antitumor T-cell immunity (data not shown; see Yuan et al. 2022, FIG. 4I; see also U.S. Provisional Application No. 63/252,721, FIG. 4D).
# cancer patients = assay: Retrospective analysis of electronic health records of cancer patients receiving ICT (anti-PD-1/PD-L1); format: in vivo, human
# Source text: FIG. 1A: Percentages of deceased cancer patients taking dietary nutritional supplements during ICT treatment (Anti-PD-1/PDL1: Pembrolizumab/Atezolizumab) (n=7,667 including 1,888 breast cancer patients, 2,715 melanoma patients, and 3,064 prostate cancer patients). Each bar represents a group of patients who took one type of nutritional supplement along with ICT (Red dashed line indicated the median percentage of deceased cancer patients in this study). […] FIGS. 1C-1D: Tumor growth curves of orthotopic EMT6 TNBC tumor-bearing Balb/c mice (FIG. 1C, n=5) and orthotopic B16-GMCSF melanoma tumor-bearing C57BL/6 mice (FIG. 1D, left, n=5) treated with vehicle, 50 mg/kg of Vitamin E (VitE), […] anti-PDI (ICT), or Vitamin E+anti-PD1 (VitE+ICT) (n=5). Flow cytometry quantification of Granzyme B^+CD8^+ T cells in tumor tissues at 20 days post-implantation (FIG. 1D. right, n=5). FIG. 1E: Tumor growth curves of orthotopic B16-F10 melanoma tumor-bearing C57BL/6 mice with the indicated treatments (n=5). FIG. 1F: Tumor growth curves of orthotopic B16-FLT3L melanoma tumor-bearing C57BL/6 mice with the indicated treatments (n=5). […]
# We retrospectively analyzed electronic health records for the clinical outcomes of cancer patients receiving ICT immunotherapies (anti-PD-1/PD-L1). […]
# OT-1 T cells = assay: OT-1 T cell proliferation with OVA-loaded BMDCs; format: cell-based, mouse; conditions: VitE-treated, OVA-loaded BMDCs vs vehicle, day 3
# Description: FIG. 2A: Percentage of human IFN-γ^+CD8^+ T cells in CD8^+ T cells in coculture with vehicle or VitE-treated autologous MoDCs (n=3). FIG. 2B: Representative flow cytometric analysis and quantification of antigen-specific OT-1 T cell proliferation stimulated with OVA-loaded mouse BMDCs that were treated with vehicle or VitE at day 3. FIG. 2C: Tumor growth curves of orthotopic EMT6 tumor-bearing mice treated with vehicle (Ctrl), Vitamin E (VitE), or VitE plus Cyt c (10 mg/kg. i.v, every other day starting on day 3) to deplete DCs (n=8/group). The statistical significance is defined by P-value: *P<0.05, **P<0.01, ***P<0.001. ****P<0.0001.
# FIG. 3A: Volcano plot of reverse phase protein array (RPPA) data of mouse BMDCs treated with VitE (50 μg/ml) compared to those treated with vehicle control with tumor conditioned media (TCM) for 48 hours (n=3 independent samples). […] The grey dashed line indicates P-value of 0.05. FIG. 3B: t-SNEs by CyTOF and quantification comparing the intensity of pY564-SHP1 in TADCs from the vehicle-or VitE-treated EMT6 tumors at day 15 post-implantation. FIG. 3C: Top, SHP1 knockdown in BMDCs was effective. […] Right, quantification of OT-1 T-cell numbers under the indicated condition. FIG. 3D: The binding of VitE to purified SHP1 is analyzed by microscale thermophoresis (MST) binding assay. […]
structure (smiles),measurement,setting,value
"Cc1c(C)c2c(c(C)c1O)CC[C@@](C)(CCC[C@H](C)CCC[C@H](C)CCCC(C)C)O2 [VitE, D-α-Tocopherol]",pY564-SHP1 in Scarb1-/- DCs,"Scarb1-/-DCs; VitE treatment, unlike wild-type DCs",failed to inhibit pY564-SHP1
same,proliferation of cocultured T cells,"Scarb1-/-DCs; VitE-treated Scarb1-/- DCs, in contrast to wild-type DCs",did not induce proliferation of cocultured T cells
same,survival rate of cancer patients,cancer patients; VitE during anti-PD-1/PD-L1 treatment vs any of 14 other dietary or nutritional supplements,significantly improved survival rate
same,Percentages of deceased cancer patients,"cancer patients; took VitE during anti-PD-1/PD-L1 treatment (n=83), patients who did not 21.2% (n=7,574), Fisher P 0.0027",8.4%
same,antigen-specific OT-1 T cells in coculture,OT-1 T cells,increased the OVA-derived SIINFEKL antigen-specific OT-1 T cells in coculture

# From patent publication US20240424019A1, “SHP1 MODIFIED DENDRITIC CELLS AND EXTRACELLULAR VESICLES DERIVED THEREFROM AND ASSOCIATED METHODS” (BOARD OF REGENTS, THE UNIVERSITY OF TEXAS SYSTEM, priority 2021, published 2024)
